Earlier results as cited in patent US20160113981A1, “TOPICAL COMPOSITION” (priority 2014, published 2016).

Key:
[1] = equimolar dose of indomethacin
[2] = after topical application of lavender oil

Compound	anti-inflammatory effect compared with indomethacin [1]	time of peak in the blood [2] [min]
CC1=CC[C@@]2(C)[C@H]([C@@H]1C)[C@H]1CC[C@@H]3[C@@]4(C)CC[C@H](O)C(C)(C)[C@@H]4CC[C@@]3(C)[C@]1(C)C[C@@H]2O [faradiol]	same effects as an equimolar dose of indomethacin	
C=CC(C)(O)CCC=C(C)C (stereo not drawn) [linalool]		19
C=CC(C)(CCC=C(C)C)OC(C)=O (stereo not drawn) [linalyl acetate]		19
